{"source": "patent US9375411B2", "about": "“Uses and methods for the treatment of liver diseases or conditions” (Verlyx Pharma Inc., priority 2012, dated 2016)", "key": {"[1]": {"assay": "Oral bioavailability and biodistribution of pentamidine salts", "experimental": "In this experiment, HCl, isethionate and tosylate salts of pentamidine were administered orally to mice and their PK and tissue accumulations were compared.\nPK parameters for pentamidine salt following oral administration of 200 mg/kg in mice.\nBiodistribution of Pentamidine Salts in mice, 24 hours after PO administration of 200 mg/kg."}, "[2]": {"test_system": "GalN/LPS fulminant liver injury", "assay": "GalN/LPS fulminant liver injury model", "format": "in vivo", "conditions": "mice; for Serum ALT / Serum ALT levels reduced relative to PBS vehicle: 6.5 hours", "experimental": "To evaluate the anti-inflammatory, anti-TNFα and hepato-protective properties of PENTAMIDINE, a Galactosamine/Liposaccharide (GalN/LPS) fulminant liver injury model was used.\nThree independent experiments on mice untreated or pretreated with vehicle, compound PENTAMIDINE (isethionate salt) at doses of 25 and 40 mg/kg. PENTAMIDINE is dosed IP 30-minutes prior to the co-treatment with subtoxic doses of hepatotoxin GalN and immune stimulant LPS. Mice were sacrificed at 6.5 hours after GalN/LPS for analysis. The analysis of alanine transaminase (ALT) serum levels and histological observations allow the evaluation of the hepato-protective, anti-TNF-α, anti-inflammatory and/or anti-fibrotic activity.\nTo evaluate the anti-inflammatory, anti-TNFα and hepatoprotective properties of different pentamidine salt such as pentamidine bis-HCl (penta-HCL) and pentamidine tosylate (penta-Tos), a Galactosamine/Liposaccharide (GalN/LPS) fulminant liver injury model was used.\nPentamidine HCl and Tosylate were dosed IP 30-minutes prior to the co-treatment with subtoxic doses of hepatotoxin GalN and immune stimulant LPS. Mice were sacrificed at 6.5 hours after GalN/LPS for analysis. The analysis of alanine transaminase (ALT) serum levels and histological observations allow the evaluation of the hepato-protective, anti-TNF-α, anti-inflammatory and/or anti-fibrotic activity. Results"}, "[3]": {"assay": "Repeat dose oral capsule or intravenous infusion pharmacokinetics in blood", "format": "in vivo, Male Beagle Dogs", "conditions": "Beagle dogs, 2-h IV 4 mg/kg/day, Day 1, individual animals and Mean", "experimental": "Pharmacokinetics Study in Male Beagle Dogs. Three oral formulations were tested.\nIn this example, the pharmacokinetics and biodistribution are studied in Male Beagle Dogs. The Dog is a relevant model since the elimination rate from the different organs, mainly the liver, are closer to that observed in man. Three oral formulations were tested and compared to the injectable formulation: […]\nThe test item dosing formulation was administered once daily as a 2-hour intravenous infusion via the saphenous and/or cephalic vein using an infusion pump, using a temporary peripheral vein catheter attached to a syringe, for 2 consecutive days. The dose volume was 4 mL/kg and the infusion rate was 2 mL/kg/hour for all animals. The actual volume administered to each animal was calculated and adjusted based on the most recent practical body weight of each animal. The catheter was flushed with 0.9% Sodium Chloride for Injection, USP (saline) in order to ensure that the whole intended dose was administered to the animals, after which the temporary catheter was removed and discarded.\nThe test item was administered twice daily (targeted time: 12 hours apart) by oral capsule administration for 3 consecutive days to fasted animals (at least 4 hours prior to dosing). Food was returned 2 hours post-dose.\nThe number of capsules to be administered to each animal was fixed to 2 capsules/animals/occasion. If needed, following dosing, the oral cavity was rinsed with an appropriate volume of reverse osmosis water to facilitate swallowing. The oral cavity was inspected following dosing to ensure that the capsules have been swallowed."}, "[4]": {"conditions": "mice, PO 50 mg/kg"}, "[5]": {"test_system": "NASH-like pathology", "assay": "Diabetic and high-fat diet model (STAM mice, NASH-like pathology)", "format": "in vivo, C57BL/6 mice", "conditions": "high dose group (25 mg/kg IP three times a week, 6-9 wks)", "experimental": "In this experiment, NASH-like pathology is induced in C57BL/6 mice by a single subcutaneous injection of 200 ug streptozotocin 2 days after birth and feeding with high fat diet (HFD, 57 kcal % fat, cat#: HFD32, CLEA Japan, Japan) after 4 weeks of age (STAM mice). Vehicle or pentamidine treatment was administered three times a week from 6 to 9 weeks of age. Vehicle (0.9% NaCl) and PENTAMIDINE were administered by intraperitoneal route in a volume of 10 mL/kg."}, "[6]": {"test_system": "chemokines interleukin (IL)-8, GRO alpha and MCP-1", "conditions": "human whole blood, cited from earlier work"}, "[7]": {"assay": "Repeated oral administration, tissue concentrations in mice", "format": "in vivo, Female Fox Chase SCID CB17 Mice", "experimental": "In this experiment, mice from all groups were first injected with pentamidine via the IV route on Day 1 (5 mg/kg). Tissue concentrations were assessed 24 hours later (on Day 2), and weekly thereafter (Day 7 and 14) with no subsequent pentamidine administration. Starting on Day 2, groups 2 and 3 were given pentamidine once a day (QD) or twice a day (BID) respectively and tissue levels were measured 24 hours later (Day 3) and weekly thereafter for two weeks."}, "[8]": {"assay": "in vivo", "conditions": "male, Beagle, dog, liver, iv, 4 mg/kg/day"}, "[9]": {"conditions": "mice, 24 hours after PO 200 mg/kg, listed as Penta-Ise, 200 mg/kg"}, "[10]": {"conditions": "mice, oral 200 mg/kg, blood, listed as Isethionate salt, 200 mg/kg"}, "[11]": {"conditions": "IP 25 mg/kg 30 minutes prior to GalN/LPS"}, "[12]": {"conditions": "IP 40 mg/kg 30 minutes prior to GalN/LPS"}, "[13]": {"conditions": "male, Beagle, dog, iv, 4 mg/kg/day"}, "[14]": {"conditions": "IV 5 mg/kg Day 1, then PO QD or BID"}}, "note": "Values joined by “and” are separate entries in the source; they are usually repeats but may differ in a detail not shown here. Identical values can stand only once.", "data": [{"smiles": "N=C(N)c1ccc(OCCCCCOc2ccc(C(=N)N)cc2)cc1", "note": "[pentamidine, pentamidine bis(2-hydroxyethanesulfonate)]", "values": [{"measurement": "Tissue Concentration Kidney", "setting": "[1]; [9]", "value": 5.0, "unit": "µM"}, {"measurement": "Tissue Concentration Liver", "setting": "[1]; [9]", "value": 5.6, "unit": "µM"}, {"measurement": "Tissue Concentration Lung", "setting": "[1]; [9]", "value": 2.7, "unit": "µM"}, {"measurement": "Tissue Concentration Pancreas", "setting": "[1]; [9]", "value": 1.3, "unit": "µM"}, {"measurement": "F*", "setting": "[1]; mice, oral 200 mg/kg, based on the iv AUC at 5 mg/kg of 19.08, listed as Isethionate salt", "value": 3.0}, {"measurement": "AUCINF", "setting": "[1]; [10]", "value": 23.0, "unit": "µM·h"}, {"measurement": "Cl/F", "setting": "[1]; [10]", "value": 255, "unit": "mL/min/kg"}, {"measurement": "Cmax", "setting": "[1]; [10]", "value": 3060, "unit": "nM"}, {"measurement": "MRT", "setting": "[1]; [10]", "value": 52.8, "unit": "h"}, {"measurement": "Tmax", "setting": "[1]; [10]", "value": 3.33, "unit": "h"}, {"measurement": "t½", "setting": "[1]; [10]", "value": 44.5, "unit": "h"}, {"measurement": "AUC", "setting": "[1]; mouse, in vivo, iv, 5 mg/kg", "value": 19.1, "unit": "µM·h"}, {"measurement": "Numbers of TUNEL-positive cells per high power field in the livers", "setting": "[2]; GalN/LPS, P<0.0002 as compared to PBS+GalN/LPS", "value": "significantly decreased"}, {"measurement": "Serum ALT", "setting": "[2]; [11]", "value": "402+/−105"}, {"measurement": "Serum ALT levels reduced relative to PBS vehicle", "setting": "[2]; [11]", "value": 93, "unit": "%"}, {"measurement": "Serum ALT", "setting": "[2]; [12]", "value": "177+/−44"}, {"measurement": "Serum ALT levels reduced relative to PBS vehicle", "setting": "[2]; [12]", "value": 97, "unit": "%"}, {"measurement": "AUC % Extrap", "setting": "[3]; 4 mg/kg/day", "value": "22.12% and 18.04% and 19.13% and 48.74% and 43.8% and 19.89%"}, {"measurement": "AUCINF", "setting": "[3]; 4 mg/kg/day", "value": "24.54 µM·h and 35.82 µM·h and 9.09 µM·h and 20.95 µM·h and 35.1 µM·h and 17.89 µM·h"}, {"measurement": "AUClast", "setting": "[3]; 4 mg/kg/day", "value": "19.11 µM·h and 29.35 µM·h and 7.35 µM·h and 10.74 µM·h and 19.73 µM·h and 14.33 µM·h"}, {"measurement": "CL", "setting": "[3]; 4 mg/kg/day", "value": "8 mL/min/kg and 5.5 mL/min/kg and 21.5 mL/min/kg and 9.33 mL/min/kg and 5.67 mL/min/kg and 11 mL/min/kg"}, {"measurement": "Cmax", "setting": "[3]; 4 mg/kg/day", "value": "2200 nM and 2160 nM and 1740 nM and 1220 nM"}, {"measurement": "MRTlast", "setting": "[3]; 4 mg/kg/day", "value": "45.29 h and 65.59 h and 6.36 h and 18.84 h and 30.73 h and 38.14 h"}, {"measurement": "Tlast", "setting": "[3]; 4 mg/kg/day", "value": "120 h and 168 h and 24 h and 48 h and 72 h and 96 h"}, {"measurement": "Tmax", "setting": "[3]; 4 mg/kg/day", "value": 2, "unit": "h"}, {"measurement": "Vz", "setting": "[3]; 4 mg/kg/day", "value": "26.52 L/kg and 18.59 L/kg and 22.93 L/kg and 32.19 L/kg and 33.41 L/kg"}, {"measurement": "t1/2", "setting": "[3]; 4 mg/kg/day", "value": 35.23, "unit": "h"}, {"measurement": "Cmax", "setting": "[3]; [13]", "value": 1430, "unit": "nM"}, {"measurement": "half-life", "setting": "[3]; [13]", "value": 47, "unit": "h"}, {"measurement": "Tmax", "setting": "[3]; male, Beagle, dog, iv, 4 mg/kg/day, read-out: Tmax", "value": 1, "unit": "h"}, {"measurement": "Vd", "setting": "[3]; male, Beagle, dog, iv, 4 mg/kg/day, read-out: Vz", "value": 32.5, "unit": "L/kg"}, {"measurement": "Cmax", "setting": "[3]; male, dog", "value": 1040, "unit": "nM"}, {"measurement": "Liver and kidney levels after PO administration versus blood", "setting": "[4]", "value": "several folds that of blood"}, {"measurement": "muscle concentration after PO administration versus blood", "setting": "[4]", "value": "several folds the concentration found in blood"}, {"measurement": "Liver weights", "setting": "[5]", "value": "close to normal mice control values"}, {"measurement": "fibrosis formation (Sirius Red staining)", "setting": "[5]", "value": "trend for reduction"}, {"measurement": "PHA-induced generation of IL-6", "setting": "[6]; 10 microM", "value": "partial inhibition"}, {"measurement": "PHA-induced generation of TNF-alpha, IL-1 beta, IL-2, IL-4, IL-5, IL-10 and IFN-gamma", "setting": "[6]; 10 microM", "value": "no significant inhibitory effect"}, {"measurement": "LPS- and PHA-stimulated whole blood generation of chemokines IL-8, GRO alpha, MCP-1", "setting": "[6]", "value": "dose-dependently suppress"}, {"measurement": "Kidney levels, effect of oral administration", "setting": "[7]; [14]", "value": "not affected by oral administration"}, {"measurement": "liver concentrations under oral administration regimen", "setting": "[7]; [14]", "value": "can be maintained to a desired concentration"}, {"measurement": "Kidneys, lung and muscle concentrations, difference between groups with or without PO", "setting": "[7]; IV 5 mg/kg Day 1, then none, PO QD or PO BID", "value": "no significant difference between groups"}, {"measurement": "half-life", "setting": "[8]", "value": "~672", "unit": "h"}]}]}
